Patent publication US11617726B2, “Method for preventing, treating, or ameliorating a microbial infection” (priority 2018, dated 2023)
≈ marks a conversion by molar mass, not a printed value. Read-outs that look alike come from different tables or passages of the source.

Experiments:
[1] = test system: Pseudomonas aeruginosa ATCC 27853; experiment: MIC determination by broth dilution method (CLSI M07-A9); type: cell-based; conditions: Pseudomonas aeruginosa, ATCC27853, P. aeruginosa ATCC 27853, read-out: MIC
Procedure: (§1) Minimum Inhibitory Concentration (MIC) is the lowest concentration of an antimicrobial agent that prevents visible growth of a microorganism in an agar or broth dilution susceptibility test. MIC of thymoquinone was determined by the broth dilution method against 33 MDR Acinetobacter baumannii strains and standard sensitive culture collection strain of Acinetobacter baumannii and Pseudomonas aeruginosa. The MIC of gentamicin was deter lined by broth dilution method against six MDR Acinetobacter baumannii strains and standard sensitive culture collection strains of Acinetobacter baumannii and Pseudomonas aeruginosa. MIC testing was performed according to the recommendations and guidelines of Clinical Laboratory Standard Institutes (CLSI M07-A9; 2012). Clinical and Laboratory Standards Institute (CLSI), “Methods for Dilution Antimicrobial Susceptibility Tests for Bacteria That Grow Aerobically; Approved Standard,” Document M07-A9, Clinical and Laboratory Standards Institute (CLSI), Wayne, Pa., USA, 2012.
(§2) Twenty-one grams of Mueller-Hinton Broth (MHB) was suspended in 1 Liter distilled water and then boiled to dissolve the powder completely. The medium was sterilized by autoclaving at 121° C. for 15 min. After autoclaving, the medium was cooled to room temperature before use or stored in the fridge until used.
(§3) Thymoquinone was weighed and dissolved in Dimethyl sulfoxide (DMSO) to produce a thymoquinone stock solution with a concentration of 5,120 μg/ml. Gentamicin sulfate was weighed and dissolved in water to produce a gentamicin sulfate stock solution with a concentration of 5,120 μg/ml, equivalent to gentamicin base.
(§4) Dilutions of thymoquinone and gentamicin sulfate stock solutions were prepared volumetrically in the MHB as follows:
(§5) One mL of original stock solution (5,120 μg/ml) was added to 9 ml sterile MHB to give the working first dilution (512 μg/mL). 12 sterile 7 mL PJ tubes were arranged in a rack in a row. Each tube contained one mL sterile MHB. Ten tubes were labeled as 128 μg/mL, 64 μg/mL, 32 μg/mL, 16 μg/mL, 8 μg/mL, 4 μg/mL, 2 μg/mL, 1 μg/mL, 0.5 μg/mL and 0.25 μg/mL. The eleventh and twelfth tubes were labeled as positive and negative control, respectively.
(§6) The working dilution (512 μg/mL) was serially diluted to give two-fold dilutions. One mL of the working dilution (512 μg/mL) was dispensed in the first tube (labeled as 128 μg/mL) to give a concentration of 256 μg drug/mL MHB. One mL of the first tube was added to the second tube (labeled as 64 μg/mL) to give a concentration of 128 μg drug/mL MHB. One mL of the second tube was transferred to the third tube (labeled as 32 μg/mL) to give a concentration of 64 μg drug/mL MHB. One mL of the third tube was added to the fourth tube (labeled as 16 μg/mL) to give a concentration of 32 μg drug/mL MHB. One mL of the fourth tube was dispensed in the fifth tube (labeled as 8 μg/mL) to give a concentration of 16 μg drug/mL MHB. One mL of the fifth tube was dispensed in the sixth tube (labeled as 4 μg/mL) to give a concentration of 8 μg drug/mL MHB. One mL of the sixth tube was added to the seventh tube (labeled as 2 μg/mL) to give a concentration of 4 μg drug/mL MHB. One mL of the seventh tube was added to the eighth tube (labeled as 1 μg/mL) to give a concentration of 2 μg drug/mL MHB. One mL of the eighth tube was transferred to the ninth tube (labeled as 0.5 μg/mL) to give a concentration of 1 μg drug/mL MHB. One mL of the ninth tube was transferred to the tenth tube (labeled as 0.25 μg/mL) to give a concentration of 0.5 μg drug/mL MHB. The contents were mixed thoroughly by pipetting up and down three times. One mL of the content of the tenth tube was discarded.
(§7) The inoculum suspensions (at 1-2×10^8 CFU/mL) were diluted 1:100 in MHB to obtain 1×10^6 CFU/mL. One mL of the diluted inoculum suspension (1×10^6 CFU/mL) was transferred to each tube except tube 12.
(§8) All inoculated tubes were incubated for 16-20 hours at 37° C. aerobically. […]

[2] = test system: Acinetobacter baumannii isolates and Acinetobacter baumannii ATCC BAA 747; experiment: as above; type: cell-based; conditions: Acinetobacter baumannii
Procedure: as §1, §2, §3, §4, §5, §6, §7, §8

With CC1=CC(=O)C(C(C)C)=CC1=O [Thymoquinone, 2-isopropyl-5-methylbenzo-1,4-quinone] the MIC [1] was 64 µg/mL (≈ 390 µM), the MIC ([2]; BAA747, A. baumannii ATCC BAA 747 (standard sensitive strain), read-out: MIC) was 32 µg/mL (≈ 195 µM) and the MIC ([2]; BAA747, isolate AB1, read-out: MIC) was 32 µg/mL (≈ 195 µM). The MIC ([2]; BAA747, isolate AB2, read-out: MIC) was 32 µg/mL (≈ 195 µM), the MIC ([2]; BAA747, isolate AB3, read-out: MIC) was 32 µg/mL (≈ 195 µM) and the MIC ([2]; BAA747, isolate AB4, read-out: MIC) was 32 µg/mL (≈ 195 µM). For the same compound, the MIC ([2]; BAA747, isolate AB5, read-out: MIC) was 32 µg/mL (≈ 195 µM), the MIC ([2]; BAA747, isolate AB6, read-out: MIC) was 64 µg/mL (≈ 390 µM) and the MIC ([2]; BAA747, isolate AB7, read-out: MIC) was 32 µg/mL (≈ 195 µM). For the same compound, the MIC ([2]; BAA747, isolate AB8, read-out: MIC) was 32 µg/mL (≈ 195 µM), the MIC ([2]; BAA747, isolate AB9, read-out: MIC) was 32 µg/mL (≈ 195 µM) and the MIC ([2]; BAA747, isolate AB10, read-out: MIC) was 16 µg/mL (≈ 97.4 µM). It also gave an MIC ([2]; BAA747, isolate AB11, read-out: MIC) of 32 µg/mL (≈ 195 µM), an MIC ([2]; BAA747, isolate AB12, read-out: MIC) of 32 µg/mL (≈ 195 µM) and an MIC ([2]; BAA747, isolate AB13, read-out: MIC) of 32 µg/mL (≈ 195 µM). For the same compound, the MIC ([2]; BAA747, isolate AB14, read-out: MIC) was 32 µg/mL (≈ 195 µM), the MIC ([2]; BAA747, isolate AB15, read-out: MIC) was 32 µg/mL (≈ 195 µM) and the MIC ([2]; BAA747, isolate AB16, read-out: MIC) was 64 µg/mL (≈ 390 µM). It also gave an MIC ([2]; BAA747, isolate AB17, read-out: MIC) of 64 µg/mL (≈ 390 µM), an MIC ([2]; BAA747, isolate AB18, read-out: MIC) of 32 µg/mL (≈ 195 µM) and an MIC ([2]; BAA747, isolate AB19, read-out: MIC) of 64 µg/mL (≈ 390 µM). For the same compound, the MIC ([2]; BAA747, isolate AB20, read-out: MIC) was 64 µg/mL (≈ 390 µM), the MIC ([2]; BAA747, isolate AB21, read-out: MIC) was 32 µg/mL (≈ 195 µM) and the MIC ([2]; BAA747, isolate AB22, read-out: MIC) was 64 µg/mL (≈ 390 µM). The MIC ([2]; BAA747, isolate AB23, read-out: MIC) was 32 µg/mL (≈ 195 µM), the MIC ([2]; BAA747, isolate AB24, read-out: MIC) was 32 µg/mL (≈ 195 µM) and the MIC ([2]; BAA747, isolate AB25, read-out: MIC) was 32 µg/mL (≈ 195 µM). For the same compound, the MIC ([2]; BAA747, isolate AB26, read-out: MIC) was 64 µg/mL (≈ 390 µM), the MIC ([2]; BAA747, isolate AB27, read-out: MIC) was 64 µg/mL (≈ 390 µM) and the MIC ([2]; BAA747, isolate AB28, read-out: MIC) was 64 µg/mL (≈ 390 µM). It also gave an MIC ([2]; BAA747, isolate AB29, read-out: MIC) of 64 µg/mL (≈ 390 µM), an MIC ([2]; BAA747, isolate AB30, read-out: MIC) of 32 µg/mL (≈ 195 µM) and an MIC ([2]; BAA747, isolate AB31, read-out: MIC) of 32 µg/mL (≈ 195 µM). The MIC ([2]; BAA747, isolate AB32, read-out: MIC) was 32 µg/mL (≈ 195 µM) and the MIC ([2]; BAA747, isolate AB33, read-out: MIC) was 32 µg/mL (≈ 195 µM).
